Values joined by “and” are separate entries in the source; they are usually repeats but may differ in a detail not shown here. Equal values may be shown once. Read-outs that look alike come from different tables or passages of the source.
How the values were obtained:
Assay type in all cases: in vivo, mice
[1] = Minimal motor impairment (rotarod)
[2] = Plasma and brain levels (pK/pD analysis); conditions: for concentration at 1 h: mouse, intraperitoneal
Experimental: In various tests, animals were sacrificed following testing, and trunk blood and/or brain tissue (whole brains) was collected for quantification of drug levels. Immediately after testing, animals were decapitated and trunk blood was collected into a BD Vacutainer® tube containing K2EDTA and chilled on ice until centrifugation. Following centrifugation (13000-18000 rpm, 5-7 min), the plasma was removed and transferred to a labeled microcentrifuge tube and stored at −80° C. For brain tissue collection, brains were removed immediately following decapitation and flash frozen. The frozen sample was placed in a labeled centrifuge tube and stored at −80° C.
In addition to recording the efficacy and toxicity data for these compounds alone or in combination, both plasma and brain samples were collected from each of the groups for pharmacokinetic/pharmacokinetic analysis.

[3] = system: 6 Hz (32 mA) psychomotor seizures; test: 6 Hz psychomotor seizure test, 32 mA (incl. TPE determination)
Method in brief: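 Mice dosed s.c. into a loose skin fold (one compound p.o.) at 0.01 mL/g body weight. Focal seizures induced by corneal stimulation (6 Hz, 0.2 msec rectangular pulse, 3 sec) at 32 mA; absence of stun, forelimb clonus, vibrissae twitching and Straub-tail scored as protection. TPE determined in this assay; ED50 from evenly spaced doses.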

[4] = LEV 10 mg/kg combined with Co. No. 2 3 mg/kg, 6 Hz 44 mA

## CC[C@@H](C(N)=O)N1CCCC1=O [LEV, (S)-2-(2-oxopyrrolidin-1-yl) butanamide, reference compound]
[1]; LEV alone 10 mg/kg i.p., 1 h, 44 mA group
  # motortox/# tested: 0/6 and 0/8
[1]; LEV alone 200 mg/kg
  # rotarod motor impairment/# tested: 0/8
[1]; LEV alone 200 mg/kg i.p., 44 mA group
  # rotarod motor impairment/# tested: 0/8
[1]; LEV alone 350 mg/kg i.p., 44 mA group
  # rotarod motor impairment/# tested: 0/8
[1]; LEV alone 400 mg/kg
  # rotarod motor impairment/# tested: 0/9
[1]; LEV alone 400 mg/kg i.p., 44 mA group
  # rotarod motor impairment/# tested: 0/9
[1]; LEV alone 800 mg/kg
  # rotarod motor impairment/# tested: 0/12
[1]; LEV alone 800 mg/kg i.p., 44 mA group
  # rotarod motor impairment/# tested: 0/12
[2]; LEV 10 mg/kg combined with Co. No. 1 2.5 mg/kg, 6 Hz 44 mA
  Plasma (ng/ml) LEV, individual mice: 9780 ng/ml (2×) and 13700 ng/ml and 10100 ng/ml and 9350 ng/ml and 8580 ng/ml and 10900 ng/ml
[2]; [4]
  Brain (ng/ml) LEV, individual mice: 4760 ng/mL and 6380 ng/mL and 3960 ng/mL and 6290 ng/mL and 7990 ng/mL
  Plasma (ng/ml) LEV, individual mice: 3540 ng/mL and 3850 ng/mL and 7150 ng/mL and 3890 ng/mL and 6450 ng/mL and 8200 ng/mL
[2]; brain, 10 mg/kg, LEV 10 mg/kg alone (Co. No. 2 study), read-out: Mean Brain Level (non-combination) LEV
  concentration at 1 h: 5770 ng/mL
[2]; brain, LEV 10 mg/kg combined with Co. No. 2 3 mg/kg, read-out: Mean Brain Level LEV
  concentration at 1 h: 5880 ng/mL
[2]; plasma, 10 mg/kg, LEV 10 mg/kg alone (Co. No. 1 study), read-out: Mean Plasma Levels (non-combination) LEV
  concentration at 1 h: 8250 ng/mL
[2]; plasma, 10 mg/kg, LEV 10 mg/kg alone (Co. No. 2 study), read-out: Mean Plasma Level (non-combination) LEV
  concentration at 1 h: 8750 ng/mL
[2]; plasma, LEV 10 mg/kg combined with Co. No. 1 2.5 mg/kg, 6 Hz 44 mA, read-out: Plasma (ng/ml) LEV, individual mice
  concentration at 1 h: 10300 ng/mL
[2]; plasma, LEV 10 mg/kg combined with Co. No. 1 2.5 mg/kg, read-out: Mean Plasma Level LEV
  concentration at 1 h: 10300 ng/mL
[2]; plasma, LEV 10 mg/kg combined with Co. No. 2 3 mg/kg, read-out: Mean Plasma Level LEV
  concentration at 1 h: 5510 ng/mL

## C[C@H](Oc1ccc(F)cc1F)c1ccn2c(CC3CC3)nnc2c1C(F)(F)F [Co. No. 6-b, 3-(Cyclopropylmethyl)-7-[(1S)-1-(2,4-difluorophenoxy)ethyl]-8-(trifluoromethyl)[1,2,4]triazolo[4,3-a]pyridine]
[1]; 2.5 mg/kg p.o., 0.5 h, 32 mA group
  # rotarod motor impairment/# tested: 0/8
[1]; 5 mg/kg p.o., 0.5 h, 32 mA group
  # rotarod motor impairment/# tested: 0/8
[1]; 10 mg/kg p.o., 0.25 h, 32 mA group
  # rotarod motor impairment/# tested: 0/4
[1]; 10 mg/kg p.o., 0.5 h, 32 mA group
  # rotarod motor impairment/# tested: 0/4 and 0/8
[1]; 10 mg/kg p.o., 0.5 h, 44 mA group
  # rotarod motor impairment/# tested: 0/8
[1]; 10 mg/kg p.o., 1 h, 32 mA group
  # rotarod motor impairment/# tested: 0/4
[1]; 10 mg/kg p.o., 2 h, 32 mA group
  # rotarod motor impairment/# tested: 0/4
[1]; 10 mg/kg p.o., 4 h, 32 mA group
  # rotarod motor impairment/# tested: 0/4
[1]; 15 mg/kg p.o., 0.5 h, 44 mA group
  # rotarod motor impairment/# tested: 0/8
[1]; 20 mg/kg p.o., 0.25 h, 32 mA group
  # rotarod motor impairment/# tested: 0/4
[1]; 20 mg/kg p.o., 0.5 h, 32 mA group
  # rotarod motor impairment/# tested: 0/4 and 0/8
[1]; 20 mg/kg p.o., 0.5 h, 44 mA group
  # rotarod motor impairment/# tested: 0/8
[1]; 20 mg/kg p.o., 1 h, 32 mA group
  # rotarod motor impairment/# tested: 0/4
[1]; 20 mg/kg p.o., 2 h, 32 mA group
  # rotarod motor impairment/# tested: 0/4
[1]; 20 mg/kg p.o., 4 h, 32 mA group
  # rotarod motor impairment/# tested: 0/4
[1]; 40 mg/kg p.o., 0.5 h, 44 mA group
  # rotarod motor impairment/# tested: 0/8
[3]; 2.5 mg/kg p.o., 0.5 h
  # protected/# tested: 1/8
[3]; 5 mg/kg p.o., 0.5 h
  # protected/# tested: 2/8
[3]; 10 mg/kg p.o., 0.25 h
  # protected/# tested: 1/4
[3]; 10 mg/kg p.o., 0.5 h
  # protected/# tested: 3/4 and 6/8
[3]; 10 mg/kg p.o., 1 h
  # protected/# tested: 0/4
[3]; 10 mg/kg p.o., 2 h
  # protected/# tested: 1/4
[3]; 10 mg/kg p.o., 4 h
  # protected/# tested: 0/4
[3]; 20 mg/kg p.o., 0.25 h
  # protected/# tested: 4/4
[3]; 20 mg/kg p.o., 0.5 h
  # protected/# tested: 3/4 and 7/8
[3]; 20 mg/kg p.o., 1 h
  # protected/# tested: 4/4
[3]; 20 mg/kg p.o., 2 h
  # protected/# tested: 0/4
[3]; 20 mg/kg p.o., 4 h
  # protected/# tested: 1/4
[3]; Mus musculus, po, 0.5 h, p.o., 0.5 h TPE, read-out: ED50 (95% CI) 32 mA
  ED50: 7.2 mg/kg
[3]; p.o., 0.5 h TPE
  ED50 (95% CI) 32 mA: ED50 (95% CI): 7.2 mg/kg (4.2 to 11.8)
